For orientation: IC50 means the midpoint of a concentration-inhibition curve.

This note sets out measurements from patent publication US5462926A (Biomeasure, Inc., priority 1993, dated 1995).

Like-named read-outs stand apart in the source and are kept apart here. Where a SMILES comes first, the peptide text is derived from it. Bridges are numbered along the chain shown (N, C = ends). [ ]: non-standard residue; d: D form. 2Nal = N[C@@H](Cc1ccc2ccccc2c1)C(=O)O; d2Nal = N[C@H](Cc1ccc2ccccc2c1)C(=O)O Where only a bound is given, the exact number is not on record here.

Assay [1] has as its target T1, rat NMB receptor (Rattus norvegicus, UniProt P24053).
T1 construct: a full length NMB-preferring bombesin receptor clone generated from rat esophagus; expressed in transfected cells
T1 sequence (P24053 1-390): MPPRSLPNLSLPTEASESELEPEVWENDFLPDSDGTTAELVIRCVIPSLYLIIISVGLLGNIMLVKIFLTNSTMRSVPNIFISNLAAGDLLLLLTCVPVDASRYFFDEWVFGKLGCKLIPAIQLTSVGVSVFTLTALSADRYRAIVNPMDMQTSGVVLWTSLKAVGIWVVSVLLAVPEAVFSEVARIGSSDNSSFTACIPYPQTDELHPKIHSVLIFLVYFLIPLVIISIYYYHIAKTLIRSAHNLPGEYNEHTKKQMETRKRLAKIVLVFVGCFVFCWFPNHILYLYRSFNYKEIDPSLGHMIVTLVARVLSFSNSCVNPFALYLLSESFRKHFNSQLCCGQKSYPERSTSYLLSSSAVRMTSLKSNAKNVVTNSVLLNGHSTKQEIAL
Nature of the assay: Binding of 125I-[D-Tyr0]NMB to NMB-R transfected BALB 3T3 cells. The conditions noted are these: for fold decrease in NMB receptor affinity compared with cyclo SS-octa (#1): structure-function comparison from Table 1. As to the method: (§1) Cells were passaged every 3-4 days at confluence, using 0.1% trypsin in 1 mM EDTA. Rat glioblastoma C-6 tumor cells were maintained similarly and were passaged weekly at confluence. Both cell lines were cultured at 37° C. in a 5% CO2 atmosphere. Rat AR 42J pancreatic acinar cells were cultured in Dulbecco's modified Eagle's medium (DMEM) without antibiotics and supplemented with 10% (vol/vol) fetal calf serum. The incubation atmosphere consisted of 10% CO2 -90% humidified air at 37° C.

The target in assay [2] is GRP receptor (Rattus norvegicus, UniProt P52500). The assay is described as follows: Amylase release from rat pancreatic acini (alone or Bn-stimulated). Particulars: for Amylase Release, analog Alone (10 μM): analog 10 μM alone, control 4 ± 1; for Amylase Release, analog Plus Bn (0.3 nM): analog 10 μM plus Bn 0.3 nM, Bn without analog 15 ± 1. Also on record: from tissue; host or cells: dispersed pancreatic acini. The assay is classed as cell-based. As for the experimental part: pancreatic acini or [^3 H]myo[2H]inositolloaded NMBR transfected cell
Chain of GRP receptor (P52500 whole entry): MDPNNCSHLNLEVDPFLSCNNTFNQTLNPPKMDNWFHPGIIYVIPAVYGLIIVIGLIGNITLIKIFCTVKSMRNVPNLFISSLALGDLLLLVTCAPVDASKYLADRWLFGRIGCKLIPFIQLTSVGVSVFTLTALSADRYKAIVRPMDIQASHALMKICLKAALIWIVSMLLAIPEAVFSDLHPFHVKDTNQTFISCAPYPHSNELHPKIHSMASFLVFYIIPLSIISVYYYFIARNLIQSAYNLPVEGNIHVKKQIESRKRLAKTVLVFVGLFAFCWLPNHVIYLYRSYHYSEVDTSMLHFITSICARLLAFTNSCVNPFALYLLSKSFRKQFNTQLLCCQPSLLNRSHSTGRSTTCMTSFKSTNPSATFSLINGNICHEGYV
were incubated either with no additives, the somatostatin octapeptide
analog, Bn, or NMB, or a combination for 30 min at 37° C.. Amylase
release from pancreatic acini was expressed at the indicated percent of
the total cellular amylase released during the incubation. [^3 H]IP i
expressed in dpm's. To test for inhibitory effects, the effect of
somatostatin analog (10 μM) was determined on 0.3 nM Bnstimulated

For assay [3], the target named is T2, NMB receptor (Rattus norvegicus, UniProt P24053).
T2 sequence (P24053 1-390): T1 sequence (P24053 1-390)
The assay is described as follows: [3H]inositol phosphates in NMB-R transfected cells (alone or NMB-stimulated). Format: cell-based. More on the design: a full length NMB-preferring bombesin receptor clone generated from rat esophagus; expressed in transfected cells. Particulars: NMB-R transfected cells; for [3H]IP, analog Alone (10 μM): analog 10 μM alone, control 13 ± 3; for [3H]IP, analog Plus NMB (3 nM): analog 10 μM plus NMB 3 nM, NMB without analog 186 ± 58; for effect at 10 μM on NMB-stimulated increase in [3H]IP / IC50: 3 nM NMB. As for the experimental part:
as §1, with “As described previously [Wada, E., et al. Neuron 6:421 (1991)], BALB 3T3 cells expressing a stably transfected rat NMB receptor (NMB-R transfected cells) were obtained using calcium phosphate precipitation of a full length NMB-preferring bombesin receptor clone generated from rat esophagus and subcloned into a modified version of the pCD2 plasmid. Cells” for “Cells”
Measurement of phosphoinositides
Total phosphoinositides in C-6 cells and in NMB-R transfected cells were determined as described previously, with minor modifications [Benya, R. V. et al. Mol. Pharmacol. 42:1058 (1992); and Wang, L-H. et al. Biochem. Jo 286:641 (1992)]. Cells were grown to confluence in 24-well plates and then loaded with 100 μCi/ml myo-[2-^3 H]inositol in Dulbecco's modified essential medium with 2% fetal bovine serum at 37° C. for 48 hrs. Cells were washed and incubated in phosphoinositide buffer (standard buffer additionally containing 10 mM LiCl, 20 mM HEPES, 2 mM CaCl2, 2% BSA, and 1.2 mM MgSO4) for 15 min and then for 60 min at 37° C. with agonists at various concentrations or with 3 nM NMB (a half-maximal effective concentration) and possible antagonists at different concentrations. Reactions were halted using ice-cold 1% HCl in methanol, and the inositol phosphates (IP) were isolated as described previously [Bologna, M. et al. Cancer 63:1714 (1989); and Endo, T. et al. J. Endocrinolo 131:313 (1991)]. Briefly, after loading of the anion exchange column, free [^3 H]glycerophosphorylinositol was removed by washing with 5 mM disodium tetraborate in 60 mM sodium formate. Total [^3 H]inositol phosphates were then eluted using 100 mM formic acid in 1.0M ammonium formate as described previously [Benya, R. V. et al. Mol. Pharmacol. 42:1058 (1992); and Wang, L-H. et al. Biochem. J. 286:641 (1992 )].

The target of assay [4] is T3, NMB receptors on C-6 cells (Rattus norvegicus, UniProt P24053).
T3 construct: endogenous in cells; host or cells: rat glioblastoma C-6 cells
T3 sequence (P24053 1-390): T1 sequence (P24053 1-390)
The assay is described as follows: Binding of 125I-[D-Tyr0]NMB to C-6 glioblastoma cells. Particulars: Ki by Cheng method, read-out: Ki 125I-NMB Binding, NMB Receptor, C-6 Cells. As for the experimental part: Binding of ^125 I-[D-Tyr^0 ]NMB to C-6 glioblastoma and NMB-R transfected cells
Binding studies using rat glioblastoma C-6 or NMB-R transfected cells were performed as described previously [Benya, R. V. et al. Mol. Pharmacol. 42:1058 (1992); and Wang, L-H. et al. Biochem. J. 286:641 (1992)] by suspending disaggregated cells in binding buffer, which was composed of standing buffer ([…], 7.7 mM KCl, 1.0 mM EGTA, 0.02% soybean trypsin inhibitor) additionally containing 50 mM HEPES, 1 mM MgCl2, 1.5 mM CaCl2, 2.2 mM KH2 PO4, 0,015% glutamine, and 0.2% BSA (w/v) (pH 7.4). Incubations contained 75 pM ^125 I-[D-Tyr^0 ]NMB and 15×10^6 C-6 cells/ml or 2×10^6 NMB-R transfected cells/ml, for 60 min at 22° C. Nonsaturable binding of ^125 I-[D-Tyr^0 ]NMB was the amount of radioactivity associated with C-6 cells or NMB-R transfected cells when the incubation mixture contained […] NMB. Nonsaturable binding was<15% of total binding in all experiments; all values are reported herein as saturable binding (i.e., total minus nonsaturable binding).

Assay [5] addresses T4, GRP receptors on rat pancreatic acini (Rattus norvegicus, UniProt P52500).
T4 construct: from tissue; host or cells: dispersed pancreatic acini
The assay is described as follows: Binding of 125I-[Tyr4]bombesin to pancreatic acini. The conditions noted are these: read-out: Ki 125I-[Tyr4]Bn Binding, GRP Receptor, Rat Pancreatic Acini; Ki by Cheng method.
Source text: Nonsaturable binding was<10% of total binding in all experiments.

Setting [6] is: NMB-R transfected cells, value or range given for a group, read-out: K1, 125I-NMB binding to NMB-R transfected cells (text).

T4 sequence (P52500 whole entry): as above

As for `NCCCC[C@@H]1NC(=O)[C@@H](Cc2c[nH]c3ccccc23)NC(=O)[C@H](Cc2ccc(O)cc2)NC(=O)[C@@H](NC(=O)[C@H](N)Cc2ccc3ccccc3c2)CSSC[C@@H](C(=O)N[C@@H](Cc2ccc3ccccc3c2)C(N)=O)NC(=O)[C@H](Cc2ccc3ccccc3c2)NC1=O` [Analog #3, H2 -D-Nal-Cys-Tyr-D-Trp-Lys-Nal-Cys-Nal-NH2] (H-[d2Nal]CY[dW]K[2Nal]C[2Nal]-NH2; disulfide 2-7), the “fold decrease in NMB receptor affinity compared with cyclo SS-octa (#1)” value in assay [1] is reported as 2 to 3 fold. Also, in assay [2], the “Amylase Release, analog Alone (10 μM)” value turned out to be 3 ± 1 % total and the “Amylase Release, analog Plus Bn (0.3 nM)” value amounted to 15 ± 1 % total. Also, in assay [3], the “[3H]IP, analog Alone (10 μM)” value amounted to 11 ± 1 dym × 10^3 and the “[3H]IP, analog Plus NMB (3 nM)” value was 65 ± 15 dym × 10^3.
In the case of `CC(C)[C@@H]1NC(=O)[C@H](CCCCN)NC(=O)[C@@H](Cc2c[nH]c3ccccc23)NC(=O)[C@H](Cc2ccc(O)cc2)NC(=O)[C@@H](NC(=O)[C@H](N)Cc2ccc3ccccc3c2)CSSC[C@@H](C(=O)N[C@H](C(N)=O)[C@@H](C)O)NC1=O` [Analog #5], the “fold by which cyclo SS-octa is more potent than the analog, 125I-NMB binding” value in assay [1] (NMB-R transfected cells) amounted to 69 fold. In addition, the “fold decrease in NMB receptor affinity compared with cyclo SS-octa (#1)” value in assay [1] was found to be 80 fold. Moreover, in assay [2], the “Amylase Release, analog Alone (10 μM)” value came to 3 ± 1 % total and the “Amylase Release, analog Plus Bn (0.3 nM)” value is given as 12 ± 1 % total. Besides, in assay [3], the “effect at 10 μM on NMB-stimulated increase in [3H]IP” value is “no effect”; the “[3H]IP, analog Alone (10 μM)” value came out at 11 ± 2 dym × 10^3; the “[3H]IP, analog Plus NMB (3 nM)” value was found to be 179 ± 13 dym × 10^3.
On to `C[C@@H](O)[C@H](NC(=O)[C@@H]1CSSC[C@H](NC(=O)[C@H](N)Cc2ccc3ccccc3c2)C(=O)N[C@@H](Cc2ccc(O)cc2)C(=O)N[C@H](Cc2c[nH]c3ccccc23)C(=O)N[C@@H](CCCCN)C(=O)N[C@@H]([C@@H](C)O)C(=O)N1)C(N)=O` [Analog #6], for which the Ki was 8.29 ± 2.43 µM in assay [4]; 16.4 ± 4.46 µM in assay [1] (NMB-R transfected BALB 3T3 cells, Ki by Cheng method, read-out: Ki 125I-NMB Binding, NMB Receptor, Transfected Cells); 14 to 19 µM in assay [1] (setting [6]); > 10 µM in assay [5]. Besides, the “fold by which cyclo SS-octa is more potent than the analog, 125I-NMB binding” value in assay [1] (NMB-R transfected cells) is reported as 69 fold. For the same compound, the “Amylase Release, analog Alone (10 μM)” value in assay [2] is reported as 3 ± 1 % total. In assay [2], the “Amylase Release, analog Plus Bn (0.3 nM)” value amounted to 14 ± 2 % total. The IC50 in assay [2] (read-out: IC50 Amylase Release, GRP Receptor, Rat Pancreatic Acini) is > 10 µM; in assay [3] (read-out: IC50 NMB-stimulated [3H]IP, NMB Receptor, Transfected Cells), > 10 µM. Further, the “effect at 10 μM on NMB-stimulated increase in [3H]IP” value in assay [3] is given as “no effect”. The “[3H]IP, analog Alone (10 μM)” value in assay [3] came to 11 ± 2 dym × 10^3. For the same compound, in assay [3], the “[3H]IP, analog Plus NMB (3 nM)” value came out at 188 ± 30 dym × 10^3.
As for `CC(C)[C@@H]1NC(=O)[C@H](CCCCN)NC(=O)[C@@H](Cc2c[nH]c3ccccc23)NC(=O)[C@H](Cc2ccc3ccccc3c2)NC(=O)[C@@H](NC(=O)[C@H](N)Cc2ccccc2)CSSC[C@@H](C(=O)N[C@H](C(N)=O)[C@@H](C)O)NC1=O` [Analog #18] (H-[dF]C[2Nal][dW]KVCT-NH2; disulfide 2-7), the Ki in assay [4] amounted to 8.32 ± 0.957 µM. The Ki in assay [1] (setting [6]) fell in the range of 14 to 19 µM. In addition, the IC50 in assay [3] (read-out: IC50 NMB-stimulated [3H]IP, Transfected Cells (values in μM)) is > 10 µM. Also, in assay [3], the “effect at 10 μM on NMB-stimulated increase in [3H]IP” value is listed as “no effect”; the “[3H]IP, analog Alone (10 μM)” value is reported as 11 ± 1 dym × 10^3; the “[3H]IP, analog Plus NMB (3 nM)” value is 143 ± 11 dym × 10^3.
As to `C[C@H](N)C(=O)NCC(=O)N[C@H]1CSSC[C@@H](C(=O)O)NC(=O)[C@H](CO)NC(=O)[C@H]([C@@H](C)O)NC(=O)[C@H](Cc2ccccc2)NC(=O)[C@H]([C@@H](C)O)NC(=O)[C@H](CCCCN)NC(=O)[C@H](Cc2c[nH]c3ccccc23)NC(=O)[C@H](Cc2ccccc2)NC(=O)[C@H](Cc2ccccc2)NC(=O)[C@H](CC(N)=O)NC(=O)[C@H](CCCCN)NC1=O` [SS-14, somatostatin-14, reference compound], in assay [2], the “Amylase Release, analog Alone (10 μM)” value is reported as 3 ± 1 % total and the “Amylase Release, analog Plus Bn (0.3 nM)” value is 12 ± 1 % total.
The like results for `CSCC[C@H](NC(=O)[C@H](C)NC(=O)[C@@H]1CCCN1C(=O)[C@H](CC(N)=O)NC(=O)[C@H](CO)NC(=O)[C@H](CC(N)=O)NC(=O)[C@H](C)NC(=O)[C@@H](N)CO)C(=O)N[C@@H](C)C(=O)N1CCC[C@H]1C(=O)N[C@@H](CCCNC(=N)N)C(=O)N[C@@H](CCC(=O)O)C(=O)N[C@@H](CCCNC(=N)N)C(=O)N[C@@H](CCCCN)C(=O)N[C@@H](C)C(=O)NCC(=O)N[C@H]1CSSC[C@@H](C(=O)O)NC(=O)[C@H](CO)NC(=O)[C@H]([C@@H](C)O)NC(=O)[C@H](Cc2ccccc2)NC(=O)[C@H]([C@@H](C)O)NC(=O)[C@H](CCCCN)NC(=O)[C@H](Cc2c[nH]c3ccccc23)NC(=O)[C@H](Cc2ccccc2)NC(=O)[C@H](Cc2ccccc2)NC(=O)[C@H](CC(N)=O)NC(=O)[C@H](CCCCN)NC1=O` [SS-28, somatostatin-28, reference compound] were, in that order, 4 ± 1 % total and 10 ± 1 % total.
